Reference: PMC8311653, “Design, Synthesis, In Vitro and In Vivo Characterization of Selective NKCC1 Inhibitors for the Treatment of Core Symptoms in Down Syndrome” (Journal of Medicinal Chemistry, 2021)

Columns and labels:
NKCC1 = molecular target: T1, NKCC1 (Mus musculus, UniProt P55012); assay: Ca2+ influx assay in immature primary neuronal cultures (indirect measure of NKCC1 inhibition); assay type: cell-based
T1 construct: primary neuronal cultures of dissociated hippocampal neurons were prepared from E18 C57BL/6J mice; endogenous in cells; host or cells: primary hippocampal neurons from E18 C57BL/6J mice, 3 DIV
T1 sequence (P55012 1-1205): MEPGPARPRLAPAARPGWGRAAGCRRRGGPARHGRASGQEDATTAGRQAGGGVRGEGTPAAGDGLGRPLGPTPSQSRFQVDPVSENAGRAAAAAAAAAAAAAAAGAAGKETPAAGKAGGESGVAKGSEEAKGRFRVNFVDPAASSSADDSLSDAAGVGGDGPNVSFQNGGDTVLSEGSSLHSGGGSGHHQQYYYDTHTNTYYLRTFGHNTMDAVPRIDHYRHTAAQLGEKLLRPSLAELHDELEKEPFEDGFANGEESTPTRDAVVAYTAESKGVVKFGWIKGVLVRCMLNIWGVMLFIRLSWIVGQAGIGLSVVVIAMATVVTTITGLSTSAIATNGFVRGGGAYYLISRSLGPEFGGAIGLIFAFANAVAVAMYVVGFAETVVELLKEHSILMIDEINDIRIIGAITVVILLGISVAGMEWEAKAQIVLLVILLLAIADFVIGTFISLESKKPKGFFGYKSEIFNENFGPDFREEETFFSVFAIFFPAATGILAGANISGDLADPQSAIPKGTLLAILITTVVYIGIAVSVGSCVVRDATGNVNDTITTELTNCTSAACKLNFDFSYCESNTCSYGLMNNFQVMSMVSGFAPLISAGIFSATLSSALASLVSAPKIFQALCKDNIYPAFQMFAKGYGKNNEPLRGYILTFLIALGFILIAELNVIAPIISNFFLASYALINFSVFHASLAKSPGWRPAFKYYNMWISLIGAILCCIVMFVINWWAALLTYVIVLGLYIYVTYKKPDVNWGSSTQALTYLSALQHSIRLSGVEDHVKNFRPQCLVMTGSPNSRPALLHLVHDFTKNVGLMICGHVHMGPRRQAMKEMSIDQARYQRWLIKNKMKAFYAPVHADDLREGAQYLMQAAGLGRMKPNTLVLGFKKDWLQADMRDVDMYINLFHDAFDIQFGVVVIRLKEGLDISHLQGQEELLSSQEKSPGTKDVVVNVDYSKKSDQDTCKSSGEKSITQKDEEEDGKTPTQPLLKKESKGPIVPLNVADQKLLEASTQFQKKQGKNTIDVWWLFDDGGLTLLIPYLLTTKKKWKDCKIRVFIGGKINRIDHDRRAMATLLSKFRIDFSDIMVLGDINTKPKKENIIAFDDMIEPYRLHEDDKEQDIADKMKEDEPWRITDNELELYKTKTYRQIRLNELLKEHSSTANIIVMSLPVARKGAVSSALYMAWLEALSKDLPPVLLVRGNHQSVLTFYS
Protocol: To perform the Ca^2+-influx assay, primary neuronal cultures of dissociated hippocampal neurons were prepared from E18 C57BL/6J mice (Charles River) as previously described[56] and plated in 96-well black-walled, clear-bottomed plates coated with poly-L-lysine (Sigma; 0.1 mg/mL in 100 mM borate buffer, pH 8.5) at a density of 30,000 cells per well. Neurons were maintained in neurobasal medium supplemented with 2% B-27 supplement, 0.5 mM glutamine, 50 U/mL of penicillin, and 50 μg/mL of streptomycin (all from Gibco). The cells were incubated at 37 °C and 5% CO2 until DIV 3 for the Ca^2+ influx assay.
At 3 DIVs, neurons were loaded with 2.5 μM of the Ca^2+-sensitive day Fluo4-AM (Invitrogen) in extracellular solution (145 mM NaCl, 5 mM KCl, 10 mM HEPES, 5.55 mM glucose, 1 mM MgCl2, and 2 mM CaCl2, pH 7.4). After 15 min, cells were washed twice with extracellular solutions and treated with bumetanide (as a positive control), DMSO (as a negative control), or each of our compounds at 10 μM or 100 μM, in extracellular solution for 15 min. Plates were then loaded onto a Spark (Tecan) multiplate reader equipped with an automatic liquid injector system, and Fluo4 fluorescence was recorded with excitation at 485 nm and emission at 535 nm. For each well, fluorescence was first recorded for 20 s of the baseline and for 20 s after delivery of GABA (100 μM). To evaluate neuronal viability, fluorescence was recorded for an additional 20 s after delivery of a depolarizing KCl stimulus (90 mM final concentration in wells). To represent the fluorescent traces in time, we normalized the fluorescence value for each time point to the average of the fluorescence value for the first 20 s of the baseline (ΔF/F0). To quantify the average effects as represented by the bar plots, we measured the maximum peak increase in ΔF/F0 fluorescence upon GABA application normalized over the maximum peak increase in ΔF/F0 fluorescence upon KCl application. We then presented in the figures all the data as a percentage of the fluorescence increase versus the value of the control DMSO.

[1] = Aqueous kinetic solubility in PBS pH 7.4; assay type: physicochemical; conditions: aqueous kinetic solubility from 10 mM DMSO solution in PBS pH 7.4, target concentration 250 μM (final DMSO 2.5%)
Protocol: 1. Aqueous kinetic solubility.
30 µL aliquots of 10 mM DMSO stock solution of the test compound were incubated in Phosphate
Buffered Saline (PBS) at pH 7.4 at 25°C for 24h. After centrifugation the dissolved compound in the
supernatant was quantified by LC-MS/MS.
Aqueous kinetic solubility was determined by UV quantification at
215 nm. […]

[2] = In vitro metabolic stability in mouse liver microsomes; conditions: tissue homogenate, pH 7.4
Procedure, shortened: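 Compound incubated in mouse liver microsomes in 0.1M Tris-HCl pH 7.4 with 10% DMSO; after pre-incubation NADPH, G6P, G6PDH and MgCl2 added, then 37 °C for 1h, sampled at 0, 5, 15, 30, 60 min.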

[3] = 100 μM, cultured neurons, 3 DIV
[4] = phosphate buffered saline (PBS)

SMILES | inhibition at 10 µM (NKCC1; cultured neurons, 3 DIV) | inhibition at 100 µM (NKCC1; [3]) | solubility at 24 h [1, 4] | half-life at 5 μM [2] | Inhibition 100 μM Ca2+ influx (%) (NKCC1; [3]) | inhibition of NKCC1 in the Ca2+ influx assay (dose dependence) (NKCC1; neuronal cultures, Figures 4A and S2) | solubility at 24 h [1]
CN(C)S(=O)(=O)c1cc(C(=O)O)ccc1NCCCCCCCC(F)(F)F [Compound 1, 3-(-N,N-Dimethylsulfamoyl)-4-(8,8,8-trifluorooctylamino)benzoic Acid] | 45.7 ± 4.3% | 92.8 ± 1.9% | > 250 µM | > 1 h |  |  | 
CN(C)S(=O)(=O)c1cc(C(=O)O)c(O)cc1NCCCCCCCC(F)(F)F [Compound 40, 5-(N,N-Dimethylsulfamoyl)-2-hydroxy-4-((8,8,8-trifluorooctyl)amino)benzoic Acid] | 13.9 ± 2% | 51.8 ± 4% | > 250 µM | > 1 h | 51.9 ± 4.0% | significant dose-dependent inhibition | 
CCCCNc1cc(C(=O)O)cc(S(N)(=O)=O)c1Oc1ccccc1 [bumetanide, reference compound] | 51.9 ± 2.3% | 54.7 ± 2.5% |  | > 1 h |  |  | > 250 µM
